Laboratory results from patent US20050009837A1, “Modulators of lipid metabolism and methods of use” (City of Hope, priority 2003, published 2005).

Legend:
[1] = biological target: T1, LXRα - coactivator SRC-1 interaction (Homo sapiens, UniProt Q13133); test: Mammalian two-hybrid assay Gal-SRC-1 / VP-LXRα LBD / RXR LBD in CV-1 cells; type: cell-based
T1 construct: expression plasmids for Gal-SRC-1, VP-LXRα LBD or VP-LXRβ LBD, the RXR LBD; expressed in transfected cells; host or cells: CV-1 cells
Text: One characteristic of nuclear receptor antagonists is their ability to displace coactivators bound to ligand-activated receptors. Thus, if Clotrimazole is an antagonist of LXR, it should inhibit the recruitment of coactivators. To test this, a mammalian two-hybrid assay was used. In this assay, CV-1 cells were transfected with Gal-SRC-1, VP-LXRα or VP-LXRβ, the RXR LBD and a reporter construct. In this type of assay, therefore, only a protein-protein interaction between the coactivator SRC-1 and LXR can result in transcriptional activity. The mammalian two-hybrid assay of FIG. 6 was performed by transfecting CV-1 cells with expression plasmids for Gal-SRC-1, VP-LXRα LBD or VP-LXRβ LBD, the RXR LBD and the USAGx4 Tkluc reporter. Cells were treated for 40 hours with Clotrimazole before luciferase and β-galactosidase activities were measured. Gal-SRC in FIG. 6 refers to a fusion between the Gal4 DNA binding domain and the three receptor interaction domains of SRC-1.

[2] = biological target: T2, RXR (Homo sapiens, UniProt P19793); test: Transient transfection assay RXR LBD alone, UASGx4 TK Luc reporter, CV-1 cells; type: cell-based; details: lipid-stripped serum
T2 construct: transfecting CV-1 cells with either the RXR LBD alone; expressed in transfected cells; host or cells: CV-1 cells
Protocol: (§1) Synthetic compounds were screened in an effort to find more specific LXR inhibitors. CV-1 cells were maintained and transfected using known methods. Forman et al., Cell 81: 687-693, 1995. CV-1 cells were transiently transfected with Gal-hLXRα, the RXR LBD, the UASGx4 TK Luc reporter and CMX-β-gal as an internal control, either in standard or in lipid-stripped serum. After transfection, cells were treated for approximately 40 hours with phenol red-free DMEM-FBS containing the indicated compounds at the following concentrations: T0901317 (100 nM), Clotrimazole (10 μM), S883417(10 μM) and S100250 (10 μM), unless otherwise specified. After exposure to ligand, the cells were harvested and assayed for luciferase and β-galactosidase activity. The luciferase activity was normalized to the internal β-galactosidase control (reporter activity).
(§2) The ability of these compounds to repress LXRα and LXRβ was compared by transfecting CV-1 cells with either the RXR LBD alone or the RXR LBD together with either Gal-LXRα or Gal-LXRβ.

[3] = tested on: CV-1 cells; test: Cytotoxicity in transfected CV-1 cells; details: T0901317 100 nM; Clotrimazole, S883417, S100250 10 μM; approximately 40 hours
Protocol: as §1

[4] = tested on: SRE reporter (FAS proximal promoter); test: SRE reporter (FAS proximal promoter-luciferase) assay in CV-1 cells; type: cell-based
Protocol: Since LXR regulates SREBP-1c expression, LXR also should regulate activities downstream of SREBP-1c. To test this, CV-1 cells were transiently transfected with as in Example 6, but with the SRE or the SREm reporter, SREBP-1c-dependent reporter constructs consisting of the FAS proximal promoter linked to the luciferase gene. […] See Wang et al., Mol. Cell 3:543-553, 1999, the disclosures of which are hereby incorporated by reference. Cells then were treated as in Example 6 with the indicated compounds, Clotrimazole or 25-hydroxycholesterol (25-OH cholesterol). 25-OH cholesterol is known to repress the synthesis of SREBP-1c and is therefore used to eliminate the effects of this transcription factor on the FAS promoter (SRE).

[5] = biological target: T3, LXRβ (Homo sapiens, UniProt P55055); test: Transient transfection assay Gal-LXRβ + RXR LBD, UASGx4 TK Luc reporter, CV-1 cells; type: cell-based
T3 construct: expressed in transfected cells; host or cells: CV-1 cells
T3 sequence (P55055 222-460 limits assumed): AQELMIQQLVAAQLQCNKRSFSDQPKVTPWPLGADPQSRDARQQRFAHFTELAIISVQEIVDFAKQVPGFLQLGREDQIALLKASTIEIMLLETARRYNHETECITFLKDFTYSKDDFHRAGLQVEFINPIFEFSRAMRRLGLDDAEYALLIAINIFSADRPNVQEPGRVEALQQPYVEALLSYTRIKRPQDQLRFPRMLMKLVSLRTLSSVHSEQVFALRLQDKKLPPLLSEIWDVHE
T3 sequence (P19793 227-458 partner limits assumed): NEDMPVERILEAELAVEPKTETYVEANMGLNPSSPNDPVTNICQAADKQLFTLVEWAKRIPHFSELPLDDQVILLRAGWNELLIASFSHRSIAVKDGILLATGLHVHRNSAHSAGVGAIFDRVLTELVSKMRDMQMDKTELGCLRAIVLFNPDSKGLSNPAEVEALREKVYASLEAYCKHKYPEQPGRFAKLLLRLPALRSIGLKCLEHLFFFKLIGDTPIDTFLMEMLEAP
Protocol: as §1, §2
Transfections were performed as described above, with increasing concentrations of Clotrimazole.

[6] = tested on: NIH 3T3-L1 cells; test: Toxicity in NIH 3T3-L1 cells during differentiation; type: cell-based; details: 200 nM T0901317, 7.5 μM Clotrimazole or both, 7 days
Protocol: NIH 3T3-L1 cells were maintained in growth media consisting of Dulbecco's modified Eagle's medium (DMEM) supplemented with 10% calf bovine serum (CBS), 50 U/ml penicillin G and 50 μg/ml streptomycin sulfate. To induce NIH 3T3-L1 differentiation into adipocytes, confluent cells were transferred from their growth media to DMEM containing 10% fetal bovine serum (FBS), 5 μg/ml insulin, 0.5 mM 3-isobutyl-1-methylxanthine (IBMX) and 1 μM dexamethasone for 7 days. During the differentiation period, cells also optionally received 200 nM T0901317, 7.5 μM Clotrimazole or both.

[7] = biological target: T4, LXRα-RXR heterodimers / SRC-1 (Homo sapiens, UniProt Q13133); test: In vitro coactivator recruitment/displacement assay (gel), LXRα, RXR, GST-SRC-1, 32P-LXRE probe; type: biochemical; details: 10 μM
T4 construct: made in house; host or cells: receptors translated in vitro
Protocol: This was tested more directly using an in vitro coactivator recruitment/coactivator displacement assay. This assay has the advantage that it is performed with receptors bound to DNA and that it measures a direct interaction between receptor and coactivator with no interference by other proteins that may indirectly stabilize the complex. The assay was performed by mixing in vitro translated LXRα or LXRβ, RXR, 5 μg of purified GST-SRC-1 and a ^32P-labeled LXRE probe with or without 10 μM Clotrimazole according to previously described methods. Wang et al., Mol. Cell 3:543-553, 1999. The complexes then were separated through 5.5% polyacrylamide gels. The probe used represents a DR-4 element derived from the human SREBP-1c promoter (nt 337-361, accession no. AB046200).

T1 sequence (Q13133 209-447 limits assumed, one chain of several): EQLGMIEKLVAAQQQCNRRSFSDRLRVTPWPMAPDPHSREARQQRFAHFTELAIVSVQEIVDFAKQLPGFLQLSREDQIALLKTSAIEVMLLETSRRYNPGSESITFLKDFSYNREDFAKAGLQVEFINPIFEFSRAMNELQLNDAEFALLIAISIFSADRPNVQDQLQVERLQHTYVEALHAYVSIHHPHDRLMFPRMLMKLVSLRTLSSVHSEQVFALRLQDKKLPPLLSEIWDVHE
T4 sequence (Q13133 whole entry): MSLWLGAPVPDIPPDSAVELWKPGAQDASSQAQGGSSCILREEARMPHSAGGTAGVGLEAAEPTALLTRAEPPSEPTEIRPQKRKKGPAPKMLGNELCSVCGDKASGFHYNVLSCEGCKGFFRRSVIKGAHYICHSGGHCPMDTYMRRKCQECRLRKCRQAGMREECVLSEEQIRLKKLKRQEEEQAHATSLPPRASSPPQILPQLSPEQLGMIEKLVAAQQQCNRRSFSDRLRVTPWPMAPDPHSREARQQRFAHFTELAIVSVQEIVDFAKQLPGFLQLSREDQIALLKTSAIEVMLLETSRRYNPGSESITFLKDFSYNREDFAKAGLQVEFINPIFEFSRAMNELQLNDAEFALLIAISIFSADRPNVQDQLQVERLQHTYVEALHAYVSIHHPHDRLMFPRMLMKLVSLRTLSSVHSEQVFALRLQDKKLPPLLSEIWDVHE
T4 sequence (P19793 whole entry partner): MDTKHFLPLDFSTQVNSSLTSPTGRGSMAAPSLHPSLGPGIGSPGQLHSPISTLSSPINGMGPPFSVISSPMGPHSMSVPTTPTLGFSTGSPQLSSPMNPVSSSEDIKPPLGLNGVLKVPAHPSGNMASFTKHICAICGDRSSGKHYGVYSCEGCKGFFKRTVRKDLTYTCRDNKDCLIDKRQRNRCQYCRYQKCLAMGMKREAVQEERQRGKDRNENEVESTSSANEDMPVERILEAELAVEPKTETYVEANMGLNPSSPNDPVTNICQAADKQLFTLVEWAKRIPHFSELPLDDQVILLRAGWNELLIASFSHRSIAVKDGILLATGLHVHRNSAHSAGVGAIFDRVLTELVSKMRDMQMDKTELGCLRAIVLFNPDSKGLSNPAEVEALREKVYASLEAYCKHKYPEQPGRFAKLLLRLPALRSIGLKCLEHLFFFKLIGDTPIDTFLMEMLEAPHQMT

Clc1ccccc1C(c1ccccc1)(c1ccccc1)n1ccnc1 [Clotrimazole]
interaction of LXRα with coactivator SRC-1 ([1]; 40 hours, two-hybrid): inhibited this interaction
basal transcription ([1]; two-hybrid specificity control): did not inhibit basal transcription
effect on RXR [2]: no effect
cytotoxicity [3]: No cytotoxicity
LXRα induction of SRE reporter activity ([4]; LXRα co-transfected (3-fold increase)): prevented this induction
LXRβ induction of SRE reporter activity ([4]; LXRβ co-expression (almost 2-fold increase)): prevented this induction
activity of reporter containing mutated SRE ([4]; SREm reporter): no significant effects
repression of SRE reporter ([4]; absence of LXR): only a weak repressive effect
repression of LXRβ activity ([5]; 10 μM, approximately 40 hours, lipid-stripped serum): powerful antagonist
EC50 ([5]; dose-response, increasing concentrations, read-out: EC50 for repression of LXRβ constitutive activity): ~10 µM
toxicity [6]: No toxicity
effect on LXRα-RXR heterodimers (bound to LXRE probe) ([7]; lane 3): no effect
interaction of LXRα-RXR with SRC-1 ([7]; lane 4): prevented the interaction with SRC-1
